Source: patent publication US20050153872A1, “Methods and compositions for the treatment of infection” (priority 2004, published 2005)

Legend:
[1] = tested on: Aspergillus niger SWA 1011 strain; assay: In vitro cell growth inhibition assay; details: Ph-CA 5 μg/ml; Ph-SA 5 μg/ml; amphotericin B 200 ng/ml; Fluconazole 3 μg/ml
[2] = tested on: Candida albicans ATCC 10231; assay: In vitro cell growth inhibition assay (OD595, filaments); details: Ph-CA 5 μg/ml; Ph-SA 5 μg/ml; ampicillin 50 μg/ml; amphotericin B 200 ng/ml; fluconazole 3 μg/ml
[3] = tested on: SMMC-7721 cells transfected with HCV; format: cell-based, human; details: about 100 micrograms per ml

Molecule	effect on growth of Aspergillus niger [1]	effect on growth of Candida albicans [2]	cell count and morphological features versus control [3]
C[C@@H]1[C@H](O)[C@@H](C)/C=C/C=C/C=C/C=C/C=C/C=C/C=C/[C@H](O[C@@H]2O[C@H](C)[C@@H](O)[C@H](N)[C@@H]2O)C[C@@H]2O[C@](O)(C[C@@H](O)C[C@@H](O)[C@H](O)CC[C@@H](O)C[C@@H](O)CC(=O)O[C@H]1C)C[C@H](O)[C@H]2C(=O)O [amphotericin B]	inhibited Aspergillus niger growth	completely inhibited C. albicans growth	
OC(Cn1cncn1)(Cn1cncn1)c1ccc(F)cc1F [fluconazole]	no effect on the growth	no effect on the growth	
NH2-colicin Ia-I626-SYAIS-…-AAWDDSLH-COOH (protein, CDRs from HBV PreS-1 ScFv linked to colicin Ia, two CDRs from PreS-1 (Genbank AF427148) of HBV ScFv linked to colicin Ia) MSDPVARGITNPGAESLGYDSDGHEIMAVASPIYVASNPPRVASPVFHGTPPAWSSFGNKTIWGGNEWVASPDSPTRSDIEKRDKEITAYKNTLSAQQKENENKRTEAGKRLSAAIAAREKDENTLKTLRAGNADAADITRQEFRLLQAELREYGFRTEIAGYDALRLHTESRMLFADADSLRISPREARSLIEQAEKRQKDAQNADKKAADMLAEYERRKGILDTRLSELEKNGGAALAVLDAQQARLLGQQTRNDRAISEARNKLSSVTESLNTARNALTRAEQQLTQQKNTPDGKTIVSPEKFPGRSSTNHSIVVSGDPRFAGTIKITTSAVIDNRANLNYLLSHSGLDYKRNILNDRNPVVTEDVEGDKKIYNAEVALAEWDKLRQRLLDARNKITSAESAVASNSARNNLSARTNEQKHANDALNALLKEKENIRNQLSGINQKIAEEKRKQDELKATKDAINFTTEFLKSVSEKYGAKAEQLAREMAGQAKGKKIRNVEEALKTYEKYRADINKKINAKDRAAIAAALESVKLSDISSNLNRFSRGLGYAGKFTSLADWITEFGKAVARGTENWRPLFVKTETIIAGNAATALVALALVFSILTGSALGIIGYGLLMAVTGALIDESLVEKANKFWGISYAISWVARGQAAGQGLEWMGAAWDDSLH			Cell swelling occurred in certain cells
NH2-colicinIa-I626-DEADYYCNSRDS-COOH (protein, E217 - S228 from HBV HBsAg ScFV linked to Colicin Ia, light chain CDR3 of HBV HBsAg ScFv linked to colicin Ia at residue 626) SDPVARGITNPGAESLGYDSDGHEIMAVASPIYVASNPPRVASPVFHGTPPAWSSFGNKTIWGGNEWVASPDSPTRSDIEKRDKEITAYKNTLSAQQKENENKRTEAGKRLSAAIAAREKDENTLKTLRAGNADAADITRQEFRLLQAELREYGFRTEIAGYDALRLHTESRMLFADADSLRISPREARSLIEQAEKRQKDAQNADKKAADMLAEYERRKGILDTRLSELEKNGGAALAVLDAQQARLLGQQTRNDRAISEARNKLSSVTESLNTARNALTRAEQQLTQQKNTPDGKTIVSPEKFPGRSSTNHSIVVSGDPRFAGTIKITTSAVIDNRANLNYLLSHSGLDYKRNILNDRNPVVTEDVEGDKKIYNAEVALAEWDKLRQRLLDARNKITSAESAVASNSARNNLSARTNEQKHANDALNALLKEKENIRNQLSGINQKIAEEKRKQDELKATKDAINFTTEFLKSVSEKYGAKAEQLAREMAGQAKGKKIRNVEEALKTYEKYRADINKKINAKDRAAIAAALESVKLSDISSNLNRFSRGLGYAGKFTSLADWITEFGKAVARGTENWRPLFVKTETIIAGNAATALVALALVFSILTGSALGIIGYGLLMAVTGALIDESLVEKANKFWGIDEADYYCNSRDS			A portion of the treated cells died in comparison with the control and the rest became swollen and/or deformed
NH2-colicinIa-I626-GFTFSDYYMS-COOH (protein, G28 - S37 from HBV HBsAg ScFV linked to Colicin Ia, heavy chain CDR1 of HBV HBsAg ScFv linked to colicin Ia at residue 626) SDPVARGITNPGAESLGYDSDGHEIMAVASPIYVASNPPRVASPVFHGTPPAWSSFGNKTIWGGNEWVASPDSPTRSDIEKRDKEITAYKNTLSAQQKENENKRTEAGKRLSAAIAAREKDENTLKTLRAGNADAADITRQEFRLLQAELREYGFRTEIAGYDALRLHTESRMLFADADSLRISPREARSLIEQAEKRQKDAQNADKKAADMLAEYERRKGILDTRLSELEKNGGAALAVLDAQQARLLGQQTRNDRAISEARNKLSSVTESLNTARNALTRAEQQLTQQKNTPDGKTIVSPEKFPGRSSTNHSIVVSGDPRFAGTIKITTSAVIDNRANLNYLLSHSGLDYKRNILNDRNPVVTEDVEGDKKIYNAEVALAEWDKLRQRLLDARNKITSAESAVASNSARNNLSARTNEQKHANDALNALLKEKENIRNQLSGINQKIAEEKRKQDELKATKDAINFTTEFLKSVSEKYGAKAEQLAREMAGQAKGKKIRNVEEALKTYEKYRADINKKINAKDRAAIAAALESVKLSDISSNLNRFSRGLGYAGKFTSLADWITEFGKAVARGTENWRPLFVKTETIIAGNAATALVALALVFSILTGSALGIIGYGLLMAVTGALIDESLVEKANKFWGIGFTFSDYYMS			Some of the treated cells died in comparison with the control and the rest became swollen and/or deformed
